“And” between values parts separate entries of the source, which are not always exact repeats. Equal entries are not always repeated. Toxic doses and inconclusive results are not listed.
Test system: CD2F1 mice, intracerebral L1210 leukemia, survival T/C
Assay: NCI In Vivo Anticancer Drug Screen. Data for tumor model L1210 Leukemia (intracerebral) in CD2F1 (CDF1) mice
Settings: higher = longer survival
Description: The antitumor activity of compounds was measured in mice bearing transplantable tumors. Survival or tumor size were measured and the results are expressed as the measurement made in the treated group (T) divided by the measurement made in the vehicle treated control group (C). The tumor model used in this assay is L1210 Leukemia (intracerebral) in CD2F1 (CDF1) mice

[1] = endpoint: median survival time, dose: 1.0 mg/kg/injection, schedule: Q01DX009 (ip), vehicle: saline with Tween-80
[2] = endpoint: median survival time, dose: 2.0 mg/kg/injection, schedule: Q01DX009 (ip), vehicle: saline with Tween-80
[3] = endpoint: median survival time, dose: 4.0 mg/kg/injection, schedule: Q01DX009 (ip), vehicle: saline with Tween-80
[4] = endpoint: median survival time, dose: 8.0 mg/kg/injection, schedule: Q01DX009 (ip), vehicle: saline with Tween-80
[5] = endpoint: median survival time, dose: 16.0 mg/kg/injection, schedule: Q01DX009 (ip), vehicle: saline with Tween-80
[6] = endpoint: median survival time, dose: 32.0 mg/kg/injection, schedule: Q01DX009 (ip), vehicle: saline with Tween-80
[7] = endpoint: median survival time, dose: 32.0 mg/kg/injection, schedule: Q01DX005 (ip), vehicle: saline with Tween-80
[8] = endpoint: median survival time, dose: 64.0 mg/kg/injection, schedule: Q01DX005 (ip), vehicle: saline with Tween-80
[9] = endpoint: median survival time, dose: 64.0 mg/kg/injection, schedule: Q01DX009 (ip), vehicle: saline with Tween-80
[10] = endpoint: median survival time, dose: 128.0 mg/kg/injection, schedule: Q01DX009 (ip), vehicle: saline with Tween-80
[11] = endpoint: median survival time, dose: 256.0 mg/kg/injection, schedule: Q01DX009 (ip), vehicle: saline with Tween-80

With `CCCN(C)C(=O)N(CCCl)N=O` the T/C (endpoint: median survival time, dose: 15.6 mg/kg/injection, schedule: Q01DX001 (ip), vehicle: DMSO) was 166 % of control, the T/C (endpoint: median survival time, dose: 15.6 mg/kg/injection, schedule: Q01DX001 (oral), vehicle: saline + alcohol) was 113 % of control and the T/C (endpoint: median survival time, dose: 31.3 mg/kg/injection, schedule: Q01DX001 (ip), vehicle: saline + alcohol) was 172 % of control. The T/C (endpoint: median survival time, dose: 31.3 mg/kg/injection, schedule: Q01DX001 (oral), vehicle: saline + alcohol) was 154 % of control, the T/C (endpoint: median survival time, dose: 62.5 mg/kg/injection, schedule: Q01DX001 (ip), vehicle: saline + alcohol) was 389 % of control and the T/C (endpoint: median survival time, dose: 62.5 mg/kg/injection, schedule: Q01DX001 (oral), vehicle: saline + alcohol) was 271 % of control. For the same compound, the T/C (endpoint: median survival time, dose: 125.0 mg/kg/injection, schedule: Q01DX001 (ip), vehicle: saline + alcohol) was 198 % of control, the T/C (endpoint: median survival time, dose: 125.0 mg/kg/injection, schedule: Q01DX001 (oral), vehicle: saline + alcohol) was 490 % of control and the T/C (endpoint: median survival time, dose: 250.0 mg/kg/injection, schedule: Q01DX001 (ip), vehicle: DMSO) was 169 % of control. The T/C (endpoint: median survival time, dose: 250.0 mg/kg/injection, schedule: Q01DX001 (ip), vehicle: saline + alcohol) was 116 % of control and the T/C (endpoint: median survival time, dose: 250.0 mg/kg/injection, schedule: Q01DX001 (oral), vehicle: saline + alcohol) was 97 % of control.

For `COc1ccc(CC2C(=O)NC(C)C(=O)N(C)C3C(=O)N(C)C(Cc4ccc(O)c(c4)Oc4ccc(cc4)C3O)C(=O)NC(C)C(=O)NC(C)C(=O)N2C)cc1` (stereo not given), the T/C (endpoint: median survival time, dose: 0.12 mg/kg/injection, schedule: Q01DX009 (ip), vehicle: Klucel (hydroxypropylcellulose) (HPC)) was 101 % of control, the T/C (endpoint: median survival time, dose: 0.13 mg/kg/injection, schedule: Q01DX009 (ip), vehicle: saline) was 93 % of control and 117 % of control and the T/C (endpoint: median survival time, dose: 0.25 mg/kg/injection, schedule: Q01DX009 (ip), vehicle: Klucel (hydroxypropylcellulose) (HPC)) was 93 % of control and 101 % of control. The T/C (endpoint: median survival time, dose: 0.25 mg/kg/injection, schedule: Q01DX009 (ip), vehicle: saline) was 124 % of control and 91 % of control, the T/C (endpoint: median survival time, dose: 0.5 mg/kg/injection, schedule: Q01DX009 (ip), vehicle: Klucel (hydroxypropylcellulose) (HPC)) was 98 % of control and 100 % of control and the T/C (endpoint: median survival time, dose: 0.5 mg/kg/injection, schedule: Q01DX009 (ip), vehicle: saline) was 124 % of control and 111 % of control. The T/C (endpoint: median survival time, dose: 1.0 mg/kg/injection, schedule: Q01DX009 (ip), vehicle: Klucel (hydroxypropylcellulose) (HPC)) was 97 % of control and 100 % of control, the T/C (endpoint: median survival time, dose: 1.0 mg/kg/injection, schedule: Q01DX009 (ip), vehicle: saline) was 104 % of control and 107 % of control and the T/C (endpoint: median survival time, dose: 2.0 mg/kg/injection, schedule: Q01DX009 (ip), vehicle: saline) was 109 % of control and 111 % of control.

`O=C1c2c(O)ccc(O)c2C(=O)c2c(NCCNCCO)ccc(NCCNCCO)c21` was tested, and the T/C (endpoint: median survival time, dose: 0.5 mg/kg/injection, schedule: Q01DX009 (ip), vehicle: saline with Tween-80) was 122 % of control and 110 % of control, the T/C [1] was 120 % of control and the T/C [2] was 121 % of control. The T/C [3] was 105 % of control and 106 % of control.

In the case of `CC(=O)c1ccccc1N=NN(C)C`, the T/C (endpoint: mean survival time, dose: 10.0 mg/kg/injection, schedule: Q01DX007 (ip), vehicle: DMSO) is reported as 91 % of control, the T/C (endpoint: mean survival time, dose: 20.0 mg/kg/injection, schedule: Q01DX007 (ip), vehicle: DMSO) is reported as 91 % of control and the T/C (endpoint: mean survival time, dose: 40.0 mg/kg/injection, schedule: Q01DX007 (ip), vehicle: DMSO) is reported as 93 % of control. The T/C (endpoint: mean survival time, dose: 80.0 mg/kg/injection, schedule: Q01DX007 (ip), vehicle: DMSO) was 103 % of control and the T/C (endpoint: mean survival time, dose: 120.0 mg/kg/injection, schedule: Q01DX007 (ip), vehicle: DMSO) was 100 % of control.

In the case of `COc1ccc(C(=O)/C(Br)=C/C(=O)O)cc1`, the T/C (endpoint: median survival time, dose: 10.0 mg/kg/injection, schedule: Q01DX005 (ip), vehicle: saline) is reported as 98 % of control, the T/C (endpoint: median survival time, dose: 20.0 mg/kg/injection, schedule: Q01DX005 (ip), vehicle: saline) is reported as 100 % of control and the T/C (endpoint: median survival time, dose: 40.0 mg/kg/injection, schedule: Q01DX005 (ip), vehicle: saline) is reported as 105 % of control.

For `O=c1n(CC2CO2)c(=O)n(CC2CO2)c(=O)n1CC1CO1` (stereo not given), the T/C (endpoint: median survival time, dose: 16.4 mg/kg/injection, schedule: Q01DX009 (ip), vehicle: saline) was 123 % of control, the T/C (endpoint: median survival time, dose: 20.5 mg/kg/injection, schedule: Q01DX009 (ip), vehicle: saline) was 115 % of control and the T/C (endpoint: median survival time, dose: 40.0 mg/kg/injection, schedule: Q01DX009 (ip), vehicle: saline) was 152 % of control. For the same compound, the T/C (endpoint: median survival time, dose: 49.2 mg/kg/injection, schedule: Q01DX001 (ip), vehicle: saline) was 114 % of control, the T/C (endpoint: median survival time, dose: 50.0 mg/kg/injection, schedule: Q01DX009 (ip), vehicle: saline) was 110 % of control and 116 % of control and the T/C (endpoint: median survival time, dose: 61.4 mg/kg/injection, schedule: Q01DX001 (ip), vehicle: saline) was 114 % of control. The T/C (endpoint: median survival time, dose: 70.0 mg/kg/injection, schedule: Q01DX009 (ip), vehicle: saline) was 109 % of control, the T/C (endpoint: median survival time, dose: 76.8 mg/kg/injection, schedule: Q01DX001 (ip), vehicle: saline) was 116 % of control and the T/C (endpoint: median survival time, dose: 80.0 mg/kg/injection, schedule: Q01DX009 (ip), vehicle: saline) was 107 % of control. The T/C (endpoint: median survival time, dose: 90.0 mg/kg/injection, schedule: Q01DX009 (ip), vehicle: saline) was 119 % of control and the T/C (endpoint: median survival time, dose: 180.0 mg/kg/injection, schedule: Q01DX009 (ip), vehicle: saline) was 117 % of control.

In the case of `Cc1c2ccncc2c(C)c2c1[nH]c1ccccc12`, the T/C (endpoint: mean survival time, dose: 10.0 mg/kg/injection, schedule: Q01DX009 (ip), vehicle: saline) is reported as 157 % of control and the T/C (endpoint: mean survival time, dose: 20.0 mg/kg/injection, schedule: Q01DX009 (ip), vehicle: saline) is reported as 157 % of control.

With `NC(C/[N+]([O-])=N/O)C(=O)O` (stereo not given) the T/C [1] was 98 % of control, the T/C [2] was 105 % of control and the T/C [3] was 101 % of control. For the same compound, the T/C [4] was 101 % of control, the T/C [5] was 102 % of control and the T/C [6] was 104 % of control. The T/C (endpoint: median survival time, dose: 56.25 mg/kg/injection, schedule: Q01DX009 (ip), vehicle: saline) was 115 % of control, the T/C (endpoint: median survival time, dose: 100.0 mg/kg/injection, schedule: Q01DX009 (ip), vehicle: Klucel (hydroxypropylcellulose) (HPC)) was 110 % of control and 112 % of control and the T/C (endpoint: median survival time, dose: 112.5 mg/kg/injection, schedule: Q01DX009 (ip), vehicle: saline) was 89 % of control. The T/C (endpoint: median survival time, dose: 200.0 mg/kg/injection, schedule: Q01DX009 (ip), vehicle: Klucel (hydroxypropylcellulose) (HPC)) was 86 % of control and 87 % of control and the T/C (endpoint: median survival time, dose: 225.0 mg/kg/injection, schedule: Q01DX009 (ip), vehicle: saline) was 89 % of control.

In the case of `CC1(C)N=C(N)N=C(N)N1c1ccc(CCC(=O)Nc2ccc(S(=O)(=O)F)cc2)c(Cl)c1`, the T/C (endpoint: mean survival time, dose: 6.25 mg/kg/injection, schedule: Q01DX009 (ip), vehicle: saline) is reported as 94 % of control, the T/C (endpoint: mean survival time, dose: 12.5 mg/kg/injection, schedule: Q01DX009 (ip), vehicle: saline) is reported as 94 % of control and the T/C (endpoint: mean survival time, dose: 25.0 mg/kg/injection, schedule: Q01DX009 (ip), vehicle: saline) is reported as 94 % of control. For the same compound, the T/C (endpoint: mean survival time, dose: 50.0 mg/kg/injection, schedule: Q01DX009 (ip), vehicle: saline) was 98 % of control.

With `CN(CCO)/N=N/c1nc[nH]c1C(N)=O` the T/C [7] was 107 % of control, the T/C [8] was 106 % of control and the T/C (endpoint: median survival time, dose: 128.0 mg/kg/injection, schedule: Q01DX005 (ip), vehicle: saline with Tween-80) was 109 % of control. The T/C (endpoint: median survival time, dose: 256.0 mg/kg/injection, schedule: Q01DX005 (ip), vehicle: saline with Tween-80) was 119 % of control.

`N[C@@H](Cc1ccc(N(CCCl)CCCl)cc1)C(=O)O` was tested, and the T/C (endpoint: mean survival time, dose: 1.25 mg/kg/injection, schedule: Q01DX009 (ip), vehicle: saline) was 116 % of control and the T/C (endpoint: mean survival time, dose: 2.5 mg/kg/injection, schedule: Q01DX009 (ip), vehicle: saline) was 120 % of control.

For `CN(Cc1ccccc1)/N=N/c1nc[nH]c1C(N)=O`, the T/C [7] was 112 % of control and the T/C (endpoint: median survival time, dose: 512.0 mg/kg/injection, schedule: Q01DX005 (ip), vehicle: saline with Tween-80) was 94 % of control.

`Nc1nncs1` was tested, and the T/C (endpoint: median survival time, dose: 7.5 mg/kg/injection, schedule: Q01DX009 (ip), vehicle: Klucel (hydroxypropylcellulose) (HPC)) was 113 % of control, the T/C (endpoint: median survival time, dose: 60.0 mg/kg/injection, schedule: Q01DX009 (ip), vehicle: Klucel (hydroxypropylcellulose) (HPC)) was 112 % of control and the T/C [8] was 118 % of control and 121 % of control and 116 % of control.

With `CN(C)CCCN1c2ccccc2Sc2ccc(Cl)cc21` the T/C (endpoint: median survival time, dose: 50.0 mg/kg/injection, schedule: Q01DX001 (ip), vehicle: water) was 113 % of control.

With `C#C[C@]1(O)CC[C@H]2[C@@H]3CCc4cc(O)ccc4[C@H]3CC[C@@]21C` the T/C [4] was 100 % of control and 104 % of control, the T/C [5] was 96 % of control and 98 % of control and the T/C [6] was 97 % of control and 101 % of control. The T/C [9] was 100 % of control and 101 % of control, the T/C [10] was 93 % of control and 101 % of control and the T/C [11] was 86 % of control and 101 % of control.

With `CCC(=O)O[C@H]1CC[C@H]2[C@@H]3CC[C@H]4CC(=O)[C@H](C)C[C@]4(C)[C@H]3CC[C@]12C` the T/C [4] was 105 % of control and 115 % of control, the T/C [5] was 105 % of control and the T/C [6] was 105 % of control. For the same compound, the T/C [9] was 122 % of control and 101 % of control, the T/C [10] was 103 % of control and the T/C [11] was 104 % of control. The T/C (endpoint: median survival time, dose: 512.0 mg/kg/injection, schedule: Q01DX009 (ip), vehicle: saline with Tween-80) was 121 % of control and 103 % of control.

Source: PubChem BioAssay AID260 (DTP/NCI, 2004)
